Measurements from ChEMBL document CHEMBL5579880, “Rational Design of a Novel 6H-Benzo[c]chromen Series as Selective PI3Kα Inhibitors” (J Med Chem, 2024).
Blank lines part the entries; values can stand above or below the compound they belong to.

Columns and labels:
[1] = biological target: T1, Phosphatidylinositol 4,5-bisphosphate 3-kinase catalytic subunit delta isoform (Homo sapiens, UniProt O00329); test: Inhibition of PI3Kdelta (unknown origin) incubated for 60 mins in presence of ATP by ADP-Glo reagent assay relative to control
T1 sequence (O00329 whole entry): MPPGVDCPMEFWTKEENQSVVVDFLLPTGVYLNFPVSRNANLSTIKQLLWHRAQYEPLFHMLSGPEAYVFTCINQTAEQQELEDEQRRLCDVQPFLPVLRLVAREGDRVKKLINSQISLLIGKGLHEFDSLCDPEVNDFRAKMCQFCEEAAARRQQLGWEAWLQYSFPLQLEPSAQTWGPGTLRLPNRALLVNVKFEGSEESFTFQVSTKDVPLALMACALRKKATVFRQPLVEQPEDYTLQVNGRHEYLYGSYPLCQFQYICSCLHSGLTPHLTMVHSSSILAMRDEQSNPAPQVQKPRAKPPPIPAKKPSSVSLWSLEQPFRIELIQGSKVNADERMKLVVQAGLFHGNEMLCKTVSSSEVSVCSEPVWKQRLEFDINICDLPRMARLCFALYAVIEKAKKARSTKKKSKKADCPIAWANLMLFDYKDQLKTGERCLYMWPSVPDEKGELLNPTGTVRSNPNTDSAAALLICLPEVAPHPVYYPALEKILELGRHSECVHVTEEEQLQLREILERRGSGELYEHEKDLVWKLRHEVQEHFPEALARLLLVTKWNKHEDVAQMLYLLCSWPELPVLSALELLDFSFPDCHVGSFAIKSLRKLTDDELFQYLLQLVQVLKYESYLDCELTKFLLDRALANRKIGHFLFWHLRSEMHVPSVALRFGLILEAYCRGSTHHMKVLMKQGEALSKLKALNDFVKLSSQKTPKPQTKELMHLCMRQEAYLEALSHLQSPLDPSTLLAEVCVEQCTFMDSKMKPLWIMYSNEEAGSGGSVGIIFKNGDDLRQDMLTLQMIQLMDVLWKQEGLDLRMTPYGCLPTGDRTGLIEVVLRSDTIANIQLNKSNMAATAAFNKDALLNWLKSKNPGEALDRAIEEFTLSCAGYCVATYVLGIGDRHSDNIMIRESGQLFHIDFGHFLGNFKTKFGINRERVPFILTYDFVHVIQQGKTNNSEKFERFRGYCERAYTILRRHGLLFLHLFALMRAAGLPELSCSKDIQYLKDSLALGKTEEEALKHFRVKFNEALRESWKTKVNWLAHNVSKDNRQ

[2] = biological target: Phosphatidylinositol 4,5-bisphosphate 3-kinase catalytic subunit gamma isoform (Homo sapiens, UniProt P48736); test: Inhibition of PI3Kgamma (unknown origin) incubated for 60 mins in presence of ATP by ADP-Glo reagent assay
[3] = biological target: Phosphatidylinositol 4,5-bisphosphate 3-kinase catalytic subunit beta isoform (Homo sapiens, UniProt P42338); test: Inhibition of PI3Kbeta (unknown origin) incubated for 60 mins in presence of ATP by ADP-Glo reagent assay
[4] = system: T47D; test: cells; details: Homo sapiens, 168 h
Description: Antiproliferative activity against human T47D cells assessed as inhibition of cell growth incubated for 7 days by CCK8 assay

[5] = system: MCF7; test: cells; details: Homo sapiens, MCF7, 168 h
Description: Antiproliferative activity against human MCF7 cells assessed as inhibition of cell growth incubated for 7 days by CCK8 assay

[6] = system: MCF7; test: Induction of apoptosis in human MCF7 cells assessed as necrotic cells at 3.3 uM incubated for 24 hrs by Annexin V-PE/7-AAD staining based flow cytometric analysis (Rvb= 0.4 %); format: functional
[7] = system: MCF7; test: cells; details: Homo sapiens, MCF7, 24 h, read-out: Activity
[8] = system: MCF7; test: Induction of apoptosis in human MCF7 cells assessed as necrotic cells at […] incubated for 24 hrs by Annexin V-PE/7-AAD staining based flow cytometric analysis (Rvb= 0.4 %); format: functional; details: dose 1.1 µM
[9] = system: MCF7; test: Induction of apoptosis in human MCF7 cells assessed as necrotic cells at 10 uM incubated for 24 hrs by Annexin V-PE/7-AAD staining based flow cytometric analysis (Rvb= 0.4 %); format: functional
[10] = system: MCF7; test: Induction of apoptosis in human MCF7 cells assessed as early apoptotic cells at […] incubated for 24 hrs by Annexin V-PE/7-AAD staining based flow cytometric analysis (Rvb= 1.3 %); format: functional; details: dose 1.1 µM
[11] = system: MCF7; test: Induction of apoptosis in human MCF7 cells assessed as late apoptotic cells at 3.3 uM incubated for 24 hrs by Annexin V-PE/7-AAD staining based flow cytometric analysis (Rvb= […]); format: functional
[12] = system: MCF7; test: cells; details: Homo sapiens, MCF7, 24 h, read-out: Activity; remark: listed apart in the source
[13] = system: MCF7; test: Induction of apoptosis in human MCF7 cells assessed as late apoptotic cells at […] incubated for 24 hrs by Annexin V-PE/7-AAD staining based flow cytometric analysis (Rvb= […]); format: functional; details: dose 1.1 µM
[14] = system: MCF7; test: Induction of apoptosis in human MCF7 cells assessed as early apoptotic cells at 10 uM incubated for 24 hrs by Annexin V-PE/7-AAD staining based flow cytometric analysis (Rvb= 1.3 %); format: functional
[15] = system: MCF7; test: Induction of apoptosis in human MCF7 cells assessed as early apoptotic cells at 3.3 uM incubated for 24 hrs by Annexin V-PE/7-AAD staining based flow cytometric analysis (Rvb= 1.3 %); format: functional
[16] = system: MCF7; test: Antitumor activity against human MCF7 cells xenografted in NCG mouse assessed as inhibition of tumor growth at 12.5 mg/kg,po administrated daily for 21 days relative to control; format: functional; details: MCF7, 504 h, time 21 day, read-out: TGI
[17] = system: MCF7; test: Induction of apoptosis in human MCF7 cells assessed as late apoptotic cells at 10 uM incubated for 24 hrs by Annexin V-PE/7-AAD staining based flow cytometric analysis (Rvb= […]); format: functional
[18] = system: MCF7; test: cells; details: Homo sapiens, MCF7, 24 h, read-out: Activity; remark: listed apart in the source

Chain of Phosphatidylinositol 4,5-bisphosphate 3-kinase catalytic subunit beta isoform (P42338 whole entry, canonical isoform): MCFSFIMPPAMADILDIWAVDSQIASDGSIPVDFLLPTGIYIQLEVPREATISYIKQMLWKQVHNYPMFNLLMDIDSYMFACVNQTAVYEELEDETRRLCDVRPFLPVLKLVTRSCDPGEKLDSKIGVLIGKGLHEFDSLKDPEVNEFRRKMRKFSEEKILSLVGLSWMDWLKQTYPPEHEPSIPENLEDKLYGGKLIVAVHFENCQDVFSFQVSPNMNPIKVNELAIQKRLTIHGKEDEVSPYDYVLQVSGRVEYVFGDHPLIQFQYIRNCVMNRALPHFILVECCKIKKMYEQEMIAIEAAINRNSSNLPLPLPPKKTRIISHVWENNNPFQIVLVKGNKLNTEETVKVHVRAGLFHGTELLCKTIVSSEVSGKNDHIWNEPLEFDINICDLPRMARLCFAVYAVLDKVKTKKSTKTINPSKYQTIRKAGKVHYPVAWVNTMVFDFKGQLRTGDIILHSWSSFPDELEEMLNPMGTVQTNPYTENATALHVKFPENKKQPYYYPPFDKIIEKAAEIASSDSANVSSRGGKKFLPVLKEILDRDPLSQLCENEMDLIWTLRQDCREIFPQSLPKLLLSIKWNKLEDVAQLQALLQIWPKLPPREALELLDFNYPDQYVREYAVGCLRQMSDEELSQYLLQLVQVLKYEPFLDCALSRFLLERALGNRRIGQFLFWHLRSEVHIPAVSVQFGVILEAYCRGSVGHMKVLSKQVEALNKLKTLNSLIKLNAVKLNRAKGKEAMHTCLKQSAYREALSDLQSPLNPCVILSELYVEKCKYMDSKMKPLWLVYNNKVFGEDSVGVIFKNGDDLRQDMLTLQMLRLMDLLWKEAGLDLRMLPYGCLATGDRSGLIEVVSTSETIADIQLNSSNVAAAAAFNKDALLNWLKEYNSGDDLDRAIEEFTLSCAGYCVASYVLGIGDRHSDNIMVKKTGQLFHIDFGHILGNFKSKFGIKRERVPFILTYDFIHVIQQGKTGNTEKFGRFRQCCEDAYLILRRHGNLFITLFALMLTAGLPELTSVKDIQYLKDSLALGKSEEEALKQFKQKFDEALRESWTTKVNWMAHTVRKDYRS
Chain of Phosphatidylinositol 4,5-bisphosphate 3-kinase catalytic subunit gamma isoform (P48736 whole entry, canonical isoform): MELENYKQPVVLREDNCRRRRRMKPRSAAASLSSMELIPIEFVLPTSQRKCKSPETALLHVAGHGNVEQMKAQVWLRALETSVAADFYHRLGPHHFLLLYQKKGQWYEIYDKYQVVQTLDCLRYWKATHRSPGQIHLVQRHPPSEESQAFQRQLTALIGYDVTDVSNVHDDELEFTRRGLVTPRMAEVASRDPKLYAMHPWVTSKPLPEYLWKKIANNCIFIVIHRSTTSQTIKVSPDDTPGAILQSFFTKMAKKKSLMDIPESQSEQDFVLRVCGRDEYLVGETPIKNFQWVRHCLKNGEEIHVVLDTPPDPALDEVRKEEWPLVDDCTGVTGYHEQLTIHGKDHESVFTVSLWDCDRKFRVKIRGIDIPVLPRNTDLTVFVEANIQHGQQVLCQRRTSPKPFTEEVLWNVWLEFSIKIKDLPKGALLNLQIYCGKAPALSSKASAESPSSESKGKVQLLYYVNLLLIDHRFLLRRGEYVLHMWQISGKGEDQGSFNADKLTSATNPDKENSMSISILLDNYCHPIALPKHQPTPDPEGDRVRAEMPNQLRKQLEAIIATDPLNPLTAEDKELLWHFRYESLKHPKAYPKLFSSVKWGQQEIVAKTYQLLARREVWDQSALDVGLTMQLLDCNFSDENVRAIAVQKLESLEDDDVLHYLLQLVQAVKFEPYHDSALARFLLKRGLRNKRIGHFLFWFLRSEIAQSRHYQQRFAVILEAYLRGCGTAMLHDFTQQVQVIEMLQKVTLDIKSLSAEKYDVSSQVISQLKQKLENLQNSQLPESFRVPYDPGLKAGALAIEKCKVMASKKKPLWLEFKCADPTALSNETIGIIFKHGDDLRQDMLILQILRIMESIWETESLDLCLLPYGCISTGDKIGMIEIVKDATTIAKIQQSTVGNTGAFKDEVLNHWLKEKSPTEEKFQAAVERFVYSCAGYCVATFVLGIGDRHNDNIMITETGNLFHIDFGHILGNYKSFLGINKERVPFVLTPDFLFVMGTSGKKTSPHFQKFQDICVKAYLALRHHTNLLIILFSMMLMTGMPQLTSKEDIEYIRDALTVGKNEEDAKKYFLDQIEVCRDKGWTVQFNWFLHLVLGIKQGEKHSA

SMILES: C[C@H](Oc1ccc2c(c1)OCc1ccc(-c3ncccn3)cc1-2)C(N)=O
IC50 [1]: 1.16 µM | IC50 [2]: 7.09 µM | IC50 [3]: > 10 µM

SMILES: CC(C)n1nccc1-c1ccc2c(c1)-c1ccc(O[C@@H](C)C(N)=O)cc1OC2
IC50 [4]: 24.9 µM | IC50 [5]: 21.9 µM

SMILES: C[C@H](Oc1ccc2c(c1)OCc1ccc(-c3ccncc3)cc1-2)C(N)=O
IC50 [1]: 0.352 µM | IC50 [2]: 0.94 µM | IC50 [3]: 3.25 µM

SMILES: C[C@H](Oc1ccc2c(c1)OCc1ccc(-c3cccnc3)cc1-2)C(N)=O
IC50 [4]: 16.6 µM | IC50 [5]: 14.9 µM

SMILES: C[C@H](Oc1ccc2c(c1)OCc1ccc(-c3ncnn3C)cc1-2)C(N)=O
IC50 [1]: 0.933 µM | IC50 [2]: 5.07 µM | IC50 [3]: 4.97 µM

SMILES: Cc1nc(NC(=O)N2CCC[C@H]2C(N)=O)sc1-c1ccnc(C(C)(C)C(F)(F)F)c1 [ALPELISIB]
Activity [6]: 16.3% | viability at 3.3 µM [7]: 63.7% | Activity [8]: 10.3% | IC50 [4]: 0.4 µM | Activity [9]: 33.6% | Activity [10]: 2.2% | Activity [11]: 16.1% | viability at […] [12]: 75% | Activity [13]: 12.5% | Activity [14]: 2.9% | Activity [15]: 3.9% | inhibition in vivo at 12.5 mg/kg [16]: 88% | IC50 [5]: 0.6 µM | Activity [17]: 15% | viability at 10 µM [18]: 48.5%

Results, then the compound that gave them:

IC50 [4]: 8.1 µM | IC50 [5]: 13.9 µM
SMILES: C[C@H](Oc1ccc2c(c1)OCc1ccc(-c3ccccn3)cc1-2)C(N)=O

IC50 [4]: 11.5 µM | IC50 [5]: 17.2 µM
SMILES: C[C@H](Oc1ccc2c(c1)OCc1ccc(-c3ccn(C)n3)cc1-2)C(N)=O

IC50 [1]: 0.702 µM
SMILES: C[C@H](Oc1ccc2c(c1)OCc1ccc(-c3ccncn3)cc1-2)C(N)=O

IC50 [1]: 0.44 µM | IC50 [2]: 1.29 µM | IC50 [3]: 2.67 µM
SMILES: C[C@H](Oc1ccc2c(c1)OCc1ccc(-c3cc[nH]n3)cc1-2)C(N)=O
